Assay: in vitro
Details: human, hela cells, % viability

Q: With `CC(=O)NC1CCN(CC2(c3ccc(F)cc3)CCCC2)CC1` [CBK283327] as the compound, how does the viability at 28.5 h, 10 µM read?
A: 89%

Q: With `C[C@H](NC(=O)C1CCN(C(=O)OC(C)(C)C)CC1)C(=O)O` [CBK286730] as the compound, how does the viability at 28.5 h, 10 µM read?
A: 78.9%

Q: Which viability at 28.5 h, 10 µM does the source give for `NC(=O)c1c(NC(=S)NC(NC(=O)c2ccccc2)C(Cl)(Cl)Cl)sc2c1CCCC2` (centres unmarked) [CBK261048] here?
A: 90.6%

Q: With `c1cnc(N2CCNCC2)c(OC2CCCCC2)n1` [CBK001837C] as the compound, how does the viability at 28.5 h, 10 µM read?
A: 92.7%

Q: With `CCC(C)NC(=O)C1=CCN(S(C)(=O)=O)C1` (centres unmarked) [CBK282861] as the compound, how does the viability at 28.5 h, 10 µM read?
A: 101%

Q: With `CC1CN(CCNCc2cn(C)nc2-c2cccnc2)CC(C)O1` (centres unmarked) [CBK305151] as the compound, how does the viability at 28.5 h, 10 µM read?
A: 110%

Q: With `O=C(c1ccno1)N1Cc2ccccc2C1` [CBK200327] as the compound, how does the viability at 28.5 h, 10 µM read?
A: 97%

Q: For `Cc1csc2c(C3CCN(C(=O)C4CC4)CC3)nc(C)n12` [CBK285241], which viability at 28.5 h, 10 µM is on record?
A: 88.8%

Q: For `CCn1c(CN2CCCC2c2nc(N(C)C)ncc2-c2cccc(F)c2)nc2ccccc21` (centres unmarked) [CBK286500], which viability at 28.5 h, 10 µM is on record?
A: 102%

Q: For `O=C(O)/C=C/c1cccc(-c2cn3ccnc3c(NCc3cccnc3)n2)c1` [CBK066283], which viability at 28.5 h, 10 µM is on record?
A: 98.8%

Q: For `CCc1ccc(S(=O)(=O)Nc2cccnc2)cc1` [CBK287782], which viability at 28.5 h, 10 µM is on record?
A: 87.5%

Q: Which viability at 28.5 h, 10 µM does the source give for `CC(C)OC(=O)COc1ccc2c(=O)c(Oc3ccccc3Br)coc2c1` [CBK264226] here?
A: 94%

Q: For `CCOC(=O)c1c(C)oc2ccc(OCC(=O)c3ccc(Br)cc3)cc12` [CBK263841], which viability at 28.5 h, 10 µM is on record?
A: 92.4%

Q: For `CCC(C)NC(=O)Cn1c(C2CCOCC2)cc2cccnc21` (centres unmarked) [CBK285390], which viability at 28.5 h, 10 µM is on record?
A: 104%

Q: Which viability at 28.5 h, 10 µM does the source give for `NC(=O)CSc1nnc(SCc2cccc3ccccc23)s1` [CBK266150] here?
A: 106%

Q: For `O=C(Nc1cccc(C(=O)O)c1)/C(=C\c1ccc2c(c1)OCO2)NC(=O)c1ccccc1Cl` [CBK263746], which viability at 28.5 h, 10 µM is on record?
A: 96.4%

Q: Which viability at 28.5 h, 10 µM does the source give for `O=C(C1CCCCC1)N1CCC(n2c(=O)[nH]c3ccccc32)CC1` [CBK149703] here?
A: 92.8%

Q: Which viability at 28.5 h, 10 µM does the source give for `O=C1C(=CNCc2ccco2)C(=O)c2ccccc21` [CBK262688] here?
A: 115%

Q: For `CC1(CNC(=O)c2ccc(N3CCCCC3)cc2)COC1` [CBK281746], which viability at 28.5 h, 10 µM is on record?
A: 105%

Q: Which viability at 28.5 h, 10 µM does the source give for `COc1cccc(OCCN2CCC3(C2)NCCc2c3[nH]c3cc(OC)ccc23)c1` (centres unmarked) [CBK061794] here?
A: 94.3%

Q: For `CCOc1cc(OCC)cc(C(=O)N2CCC3(CC2)NC(=O)c2cc(I)ccc2O3)c1` [CBK166301], which viability at 28.5 h, 10 µM is on record?
A: 94.1%

Q: Which viability at 28.5 h, 10 µM does the source give for `CCn1c(C)c(/C=C/c2nc3ccccc3c(=O)n2CCCO)c2ccccc21` [CBK268099] here?
A: 95.7%

Q: Which viability at 28.5 h, 10 µM does the source give for `O=C(O)c1ccc(NC2CCS(=O)(=O)C2)cc1` (centres unmarked) [CBK287168] here?
A: 82.3%

Q: For `O=C(Cc1c[nH]c2ccccc12)N1Cc2ccccc2C1` [CBK200321], which viability at 28.5 h, 10 µM is on record?
A: 103%

Q: Which viability at 28.5 h, 10 µM does the source give for `CCn1nc(C)c(-c2cncn2CC(C)N2CCCCC2)c1C` (centres unmarked) [CBK281808] here?
A: 102%

Q: Which viability at 28.5 h, 10 µM does the source give for `Fc1cccc(COc2nc3ccccc3n3nnnc23)c1` [CBK288198] here?
A: 114%

Q: Which viability at 28.5 h, 10 µM does the source give for `CS(=O)(=O)N1CCN(c2ccc(NC(=O)COc3ccc4ccccc4c3)cc2)CC1` [CBK266450] here?
A: 96.8%

Q: For `O=C(Nc1ccc2oc(-c3cccnc3)nc2c1)c1ccc(-c2ccc(OC(F)(F)F)cc2)o1` [CBK107713], which viability at 28.5 h, 10 µM is on record?
A: 101%

Q: For `CN(C)CCCNc1ccc(-c2nnc(O)c3ccccc23)cc1[N+](=O)[O-]` [CBK266200], which viability at 28.5 h, 10 µM is on record?
A: 100%

Q: Which viability at 28.5 h, 10 µM does the source give for `Cc1noc([C@@H]2C[C@H](NS(=O)(=O)c3ccc(C#N)cc3)CN2C)n1` [CBK288874] here?
A: 113%

Q: Which viability at 28.5 h, 10 µM does the source give for `CC(=O)c1sc(NC(=O)Cc2ccc(C)cc2)nc1C` [CBK287760] here?
A: 89.3%

Q: Which viability at 28.5 h, 10 µM does the source give for `CC1CN(S(=O)(=O)c2ccc(NC(=O)C3CC(=O)Nc4cc(F)ccc43)cc2)CC(C)O1` (centres unmarked) [CBK297933] here?
A: 91.4%

Q: With `CC(C)(C)OC(=O)NCCc1ccc(Nc2cc(-c3ccc4c(c3)OCO4)ncn2)cc1` [CBK090957] as the compound, how does the viability at 28.5 h, 10 µM read?
A: 92.5%

Q: Which viability at 28.5 h, 10 µM does the source give for `O=C(Cn1c([C@@H]2CCCO2)cc2cccnc21)N1CCCCC1` [CBK282286] here?
A: 90.3%

Q: Which viability at 28.5 h, 10 µM does the source give for `CCCn1ccnc1-c1cn(CCc2cc(O)nc(C)n2)nn1` [CBK306675] here?
A: 114%

Q: With `CN(C)c1ccc(/C=N/NC(=O)CSc2nnc(-c3ccccc3)n2-c2ccccc2)cc1` [CBK262263] as the compound, how does the viability at 28.5 h, 10 µM read?
A: 90.2%

Q: For `CCN(CCc1nc2cc(OC)ccc2[nH]1)C(=O)c1cc(C#N)cn1C` [CBK306658], which viability at 28.5 h, 10 µM is on record?
A: 90.5%

Q: For `O=C(Cc1ccc(F)cc1)N1CCCC(c2cc3ncccc3[nH]2)C1` (centres unmarked) [CBK283414], which viability at 28.5 h, 10 µM is on record?
A: 109%

Q: For `O=C(CN1CC[C@H]2NC(=O)COc3ccccc3CCCC[C@@H]2C1)NCc1ccccn1` [CBK292046], which viability at 28.5 h, 10 µM is on record?
A: 96.7%

Q: With `COc1ccc2[nH]cc(CCNC(=O)c3ccc4[nH]c(=O)[nH]c4c3)c2c1` [CBK122721] as the compound, how does the viability at 28.5 h, 10 µM read?
A: 93.4%

Q: Which viability at 28.5 h, 10 µM does the source give for `CC[C@H](Cn1c(=O)oc2ccccc21)NC(=O)Cc1cccs1` [CBK284537] here?
A: 84.7%

Q: Which viability at 28.5 h, 10 µM does the source give for `O=C(NCc1cccc2ccccc12)N1CCN(Cc2ccccc2)CC1` [CBK155628] here?
A: 92.2%

Q: Which viability at 28.5 h, 10 µM does the source give for `O=C(NCCN1CCOCC1)C1CCN(Cc2ccccc2O)CC1` [CBK264324] here?
A: 101%

Q: Which viability at 28.5 h, 10 µM does the source give for `COc1nc(-c2ccc(N(C)C)nc2)nn1C` [CBK307317] here?
A: 100%

From PMC12040169 (PLOS Biology, 2025)
